The record followed here is patent publication US10676431B2, “Phenylpyrrolidinone formyl peptide 2 receptor agonists” (BRISTOL-MYERS SQUIBB COMPANY, priority 2018, dated 2020).

One assay addresses human FPR1 (Homo sapiens (Human), UniProt P21462). Put plainly: FPR1 cyclic adenosine monophosphate (cAMP) assay. Conditions: CHO cells overexpressing human FPR1; forskolin 10 μM, IBMX 200 μM; inhibition of cAMP production, HTRF; read-out: hFPR1 cAMP EC50. Format: cell-based. Summed up: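 CHO cells overexpressing human FPR1 (4,000 per well) were incubated 30 min at room temperature with compound (0.020 nM–100 μM, 1% DMSO), 10 μM forskolin and 200 μM IBMX. Intracellular cAMP was read by HTRF. Inhibition of cAMP production was fitted to a 4-parameter logistic equation.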
For orientation: Changes in cAMP serve as a functional read-out for many G protein-coupled receptors.

In another assay the target is human FPR2 (Homo sapiens (Human), UniProt P25090). Put plainly: FPR2 cyclic adenosine monophosphate (cAMP) assay. Conditions: CHO cells overexpressing human FPR2; forskolin 5 μM, IBMX 200 μM; inhibition of cAMP production, HTRF; read-out: hFPR2 cAMP2 EC50. The class given is cell-based. Summed up: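 CHO cells overexpressing human FPR2 (2,000/well) or FPR1 (4,000/well) incubated 30 min at room temperature with compound (0.020 nM–100 μM, 1% DMSO), IBMX 200 μM and forskolin (5 μM for FPR2, 10 μM for FPR1). Intracellular cAMP read by HTRF against a cAMP standard curve; inhibition of cAMP production fitted to a 4-parameter logistic.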
Chain of human FPR2 (P25090 whole entry): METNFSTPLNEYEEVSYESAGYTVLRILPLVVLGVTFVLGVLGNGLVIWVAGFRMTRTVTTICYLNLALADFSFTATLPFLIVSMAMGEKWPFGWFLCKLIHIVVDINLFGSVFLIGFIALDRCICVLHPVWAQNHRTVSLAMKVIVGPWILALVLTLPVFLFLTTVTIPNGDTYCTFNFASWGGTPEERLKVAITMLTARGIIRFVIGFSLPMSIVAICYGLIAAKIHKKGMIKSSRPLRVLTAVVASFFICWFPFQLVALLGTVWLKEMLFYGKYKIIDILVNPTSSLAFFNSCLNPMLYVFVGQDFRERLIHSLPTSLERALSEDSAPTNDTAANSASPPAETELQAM

Chain of human FPR1 (P21462 whole entry): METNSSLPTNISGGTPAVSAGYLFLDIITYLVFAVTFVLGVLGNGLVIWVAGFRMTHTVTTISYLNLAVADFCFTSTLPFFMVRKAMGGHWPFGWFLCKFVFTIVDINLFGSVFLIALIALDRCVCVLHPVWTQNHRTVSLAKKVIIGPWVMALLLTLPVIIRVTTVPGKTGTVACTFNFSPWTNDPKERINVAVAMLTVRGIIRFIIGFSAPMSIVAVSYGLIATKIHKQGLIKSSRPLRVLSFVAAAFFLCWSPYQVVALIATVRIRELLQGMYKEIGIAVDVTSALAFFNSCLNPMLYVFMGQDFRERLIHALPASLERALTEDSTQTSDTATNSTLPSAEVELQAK

As for `CP(C)(=O)c1ccccc1-c1ccc(N2CC[C@@H](NC(=O)Nc3ccc(Cl)cc3F)C2=O)c(C(F)(F)F)c1F` [Example 91, (R)-1-(4-Chloro-2-fluorophenyl)-3-(1-(2′-(dimethylphosphoryl)-2-fluoro-3-(trifluoromethyl)-[1,1′-biphenyl]-4-yl)-2-oxopyrrolidin-3-yl)urea], the figures for the 50% effective concentration (EC50) at human FPR1 and on human FPR2 were 200 nM and 5.7 nM, respectively.

With `CS(=O)(=O)c1ccccc1-c1ccc(N2CC[C@@H](NC(=O)Nc3ccc(Cl)cc3)C2=O)c(F)c1F` [Example 10], the EC50 at human FPR1 is 130 nM; on human FPR2 it was 2.2 nM.

Regarding `COc1ccc(NC(=O)N[C@@H]2CCN(c3ccc(-c4ccccc4P(C)(C)=O)c(F)c3F)C2=O)c(F)c1` [Example 71], the 50% effective concentration (EC50) at human FPR1 is 1280 nM; on human FPR2, 2.1 nM.

For the compound `CC(C)c1cc(-c2ccccc2P(C)(C)=O)ccc1N1CC[C@@H](NC(=O)Nc2ccc(C(F)(F)F)cc2F)C1=O` [Example 60], the EC50 came out at 120 nM on human FPR1 and 3.7 nM at human FPR2.

Consider `CC1C[C@@H](NC(=O)Nc2ccc(C(F)(F)F)cc2F)C(=O)N1c1ccc(-c2cccnc2P(C)(C)=O)c(F)c1F` (some centres unmarked) [Example 128], for which the EC50 at human FPR1 came to 24 nM; at human FPR2, 1 nM.

As for `CC(C)c1cc(-c2ccccc2S(C)(=O)=O)ccc1N1CC[C@@H](NC(=O)Nc2ccc(Cl)cc2F)C1=O` [Example 40], the EC50 on human FPR1 worked out at 50 nM; on human FPR2 it was 4.6 nM.

Turning to `CS(=O)(=O)Nc1ccccc1-c1ccc(N2CC[C@@H](NC(=O)Nc3ccc(C(F)(F)F)cc3)C2=O)c(F)c1F` [Example 6], the EC50 stood at 190 nM on human FPR1 and 1 nM at human FPR2.

As for `CP(C)(=O)c1c(F)cccc1-c1ccc(N2CC[C@@H](NC(=O)Nc3ccc(Cl)cc3F)C2=O)c(F)c1F` [Example 70], the EC50 stood at 20 nM on human FPR1 and 0.077 nM at human FPR2.

`CS(=O)(=O)Nc1ccccc1-c1ccc(N2CC[C@@H](NC(=O)Nc3ccc(Cl)cc3F)C2=O)c(F)c1` [Example 32]: the half-maximal effective concentration (EC50) on human FPR1 was 250 nM; on human FPR2 it was 0.91 nM.

For the compound `N#Cc1ccccc1-c1ccc(N2CC[C@@H](NC(=O)Nc3ccc(Cl)cc3F)C2=O)c(F)c1F` [Example 9], the EC50 at human FPR1 is 31 nM; on human FPR2, 2.1 nM.

With `CC(C)c1cc(-c2ccccc2CO)ccc1N1CC[C@@H](NC(=O)Nc2ccc(Cl)cc2F)C1=O` [Example 38], the concentration for a half-maximal effect (EC50) on human FPR1 stood at 42 nM; at human FPR2, 3.5 nM.

For `CCP(=O)(CC)c1ccccc1-c1ccc(N2CC[C@@H](NC(=O)Nc3ccc(Cl)cc3F)C2=O)c(F)c1F` [Example 75], the half-maximal effective concentration (EC50) is 1180 nM on human FPR1 and 3.4 nM on human FPR2.

Regarding `CP(C)(=O)c1ccccc1-c1ccc(N2CC[C@@H](NC(=O)Nc3ccc(Cl)cc3F)C2=O)c(F)c1F` [Example 25, (R)-1-(4-chloro-2-fluorophenyl)-3-(1-(2′-(dimethylphosphoryl)-2,3-difluoro-[1,1′-biphenyl]-4-yl)-2-oxopyrrolidin-3-yl)urea], the EC50 at human FPR1 was found to be 260 nM; on human FPR2, 0.53 nM.

As for `CP(C)(=O)c1ccccc1-c1ccc(N2CC[C@@H](NC(=O)Nc3ccc(Cl)cc3F)C2=O)c(F)c1Cl` [Example 81], the 50% effective concentration (EC50) at human FPR1 came to 27 nM; at human FPR2 it was 0.52 nM.

`CS(=O)(=O)Nc1ccccc1-c1ccc(N2CC[C@@H](NC(=O)Nc3cnc(C(F)(F)F)cn3)C2=O)c(F)c1F` [Example 18]: the half-maximal effective concentration (EC50) turned out to be 2100 nM at human FPR1 and 20 nM at human FPR2.

Regarding `CP(C)(=O)c1ccccc1-c1ccc(N2CC[C@@H](NC(=O)Nc3ccc(Cl)cc3F)C2=O)c(F)c1C(F)F` [Example 95], the half-maximal effective concentration (EC50) on human FPR1 turned out to be 200 nM; at human FPR2 it was 32 nM.

Consider `COC[C@@H]1C[C@@H](NC(=O)Nc2ccc(Cl)cc2F)C(=O)N1c1ccc(-c2ccccc2P(C)(C)=O)c(F)c1F` [Example 30], for which the values for the EC50 at human FPR1 and on human FPR2 were 83 nM and 0.22 nM, respectively.

As for `CP(C)(=O)c1ccccc1-c1ccc(N2CC[C@@H](NC(=O)Nc3ccc(C(F)(F)F)cc3F)C2=O)c(F)c1C(F)(F)F` [Example 94], the EC50 amounted to 12 nM at human FPR1 and 1.8 nM on human FPR2.

Turning to `CS(=N)(=O)c1ccccc1-c1ccc(N2CC[C@@H](NC(=O)Nc3ccc(Cl)cc3F)C2=O)c(F)c1F` (some centres unmarked) [Example 58], the results for the EC50 at human FPR1 and at human FPR2 were 610 nM and 6.3 nM, respectively.

Regarding `CP(C)(=O)c1ccccc1-c1ccc(N2CC[C@@H](NC(=O)Nc3ccc(OC(F)(F)F)cc3F)C2=O)c(F)c1F` [Example 69], the figures for the concentration giving a half-maximal response (EC50) on human FPR1 and on human FPR2 were 5000 nM and 22 nM, respectively.

As to `CP(C)(=O)c1ccccc1-c1ccc(N2CC[C@@H](NC(=O)Nc3ncc(C(F)(F)F)cc3F)C2=O)c(F)c1F` [Example 55], the EC50 was above 10000 nM on human FPR1 and 22 nM at human FPR2.

For the compound `CP(C)(=O)c1ccccc1-c1ccc(N2C(=O)[C@H](NC(=O)Nc3ccc(C(F)(F)F)cc3F)C[C@H]2CO)c(F)c1F` [Example 114], the EC50 on human FPR1 worked out at 270 nM; at human FPR2 it was 0.86 nM.

`CP(C)(=O)c1ccccc1-c1ccc(N2CC[C@@H](NC(=O)Nc3ccc(Cl)s3)C2=O)c(F)c1F` [Example 135]: the figures for the half-maximal effective concentration (EC50) on human FPR1 and on human FPR2 were 720000 nM and 2.9 nM, respectively.

For the compound `CP(C)(=O)c1ccccc1-c1ccc(N2CC[C@@H](NC(=O)Nc3csc(Cl)c3)C2=O)c(F)c1F` [Example 133], the values for the half-maximal effective concentration (EC50) at human FPR1 and at human FPR2 were above 5000 nM and 150 nM, respectively.

Turning to `CS(=O)(=O)Nc1ccccc1-c1ccc(N2CC[C@@H](NC(=O)Nc3cnc(Cl)cn3)C2=O)c(F)c1F` [Example 15], the figures for the EC50 at human FPR1 and at human FPR2 were 1500 nM and 10 nM, respectively.

Consider `Cc1c(N2CC[C@@H](NC(=O)Nc3ccc(Cl)cc3F)C2=O)ccc(-c2ccccc2P(C)(C)=O)c1F` [Example 96], for which the EC50 at human FPR1 was determined as 75 nM; on human FPR2, 2.9 nM.

As for `O=C(Nc1ccc(C(F)(F)F)cc1)N[C@@H]1CCN(c2ccc(-c3ccccc3CO)c(F)c2F)C1=O` [Example 41], the 50% effective concentration (EC50) worked out at 500 nM on human FPR1 and 3.6 nM at human FPR2.

As to `CS(=O)(=O)c1ccccc1-c1ccc(N2CC[C@@H](NC(=O)Nc3ccc(C(F)(F)F)cc3F)C2=O)c(F)c1F` [Example 29], the concentration giving a half-maximal response (EC50) at human FPR1 came out at 190 nM; at human FPR2 it was 7 nM.

As a reminder, the EC50 is the concentration giving half of the maximal effect.
